The record followed here is publication PMC5218480 (PLoS ONE, 2017).

In the experiment the test system is MV-4-11 cells. Description: Gene expression microarray analysis (Affymetrix PrimeView) and GSEA. Type of experiment: cell-based, human. Further details: RFU PODN (11730768_x_at) / Fold change /veh PODN (11730768_x_at) / RFU LINC00158 (11744669_a_at) / Fold change /veh LINC00158 (11744669_a_at) / RFU DUSP10 (11751237_a_at) / Fold change /veh DUSP10 (11751237_a_at) / RFU ID3 (11757404_x_at) / Fold change /veh ID3 (11757404_x_at) / RFU PLEKHG5 (11737974_s_at) / Fold change /veh PLEKHG5 (11737974_s_at) / RFU LRRC4B (11730491_at) / Fold change /veh LRRC4B (11730491_at) / RFU GIMAP4 (11747438_a_at) / Fold change /veh GIMAP4 (11747438_a_at) / RFU KRT8 (11758183_x_at) / Fold change /veh KRT8 (11758183_x_at) / RFU CNN1 (11734310_a_at) / Fold change /veh CNN1 (11734310_a_at) / RFU VPS37D (11726825_at) / Fold change /veh VPS37D (11726825_at) / RFU C10orf10 (11716522_x_at) / Fold change /veh C10orf10 (11716522_x_at) / RFU KIR2DL2 /// KIR2DL4 /// KIR2DL5A /// KIR2DL5B /// KIR2DS1 /// KIR2DS2 /// KIR2DS3 /// KIR2DS4 /// KIR3DL3 /// KIR3DL3 /// KIR3DS1 (11738374_at) / Fold change /veh KIR2DL2 /// KIR2DL4 /// KIR2DL5A /// KIR2DL5B /// KIR2DS1 /// KIR2DS2 /// KIR2DS3 /// KIR2DS4 /// KIR3DL3 /// KIR3DL3 /// KIR3DS1 (11738374_at) / RFU C1QL1 (11718748_at) / Fold change /veh C1QL1 (11718748_at) / RFU TMPRSS4 (11747572_a_at) / Fold change /veh TMPRSS4 (11747572_a_at) / RFU HAMP (11756126_x_at) / Fold change /veh HAMP (11756126_x_at) / RFU RNFT2 (11725882_a_at) / Fold change /veh RNFT2 (11725882_a_at) / RFU NR4A2 (11747474_a_at) / Fold change /veh NR4A2 (11747474_a_at) / RFU ABCC12 (11746883_a_at) / Fold change /veh ABCC12 (11746883_a_at) / RFU TMEM136 (11760407_x_at) / Fold change /veh TMEM136 (11760407_x_at) / RFU CLDN22 /// WWC2 (11732394_at) / Fold change /veh CLDN22 /// WWC2 (11732394_at) / RFU HLA-DPB1 (11760878_x_at) / Fold change /veh HLA-DPB1 (11760878_x_at) / RFU SPINT1 (11716480_a_at) / Fold change /veh SPINT1 (11716480_a_at) / RFU GAP43 (11754022_s_at) / Fold change /veh GAP43 (11754022_s_at) / RFU A4GNT (11735810_at) / Fold change /veh A4GNT (11735810_at) / RFU PRB3 (11715151_x_at) / Fold change /veh PRB3 (11715151_x_at) / RFU TUBB4B (11761932_at) / Fold change /veh TUBB4B (11761932_at) / RFU CAPN14 (11732068_a_at) / Fold change /veh CAPN14 (11732068_a_at) / RFU TMCC2 (11721928_a_at) / Fold change /veh TMCC2 (11721928_a_at) / RFU IRGQ (11745062_a_at) / Fold change /veh IRGQ (11745062_a_at) / RFU FAM174B (11720279_a_at) / Fold change /veh FAM174B (11720279_a_at) / RFU TMPRSS4 (11748680_a_at) / Fold change /veh TMPRSS4 (11748680_a_at) / RFU FAM212B (11763350_a_at) / Fold change /veh FAM212B (11763350_a_at) / RFU PLEKHG5 (11743358_a_at) / Fold change /veh PLEKHG5 (11743358_a_at) / RFU ZSCAN30 (11745921_a_at) / Fold change /veh ZSCAN30 (11745921_a_at) / RFU CMKLR1 (11741424_a_at) / Fold change /veh CMKLR1 (11741424_a_at) / RFU LOC101060620 /// MAPK8IP1 (11723275_at) / Fold change /veh LOC101060620 /// MAPK8IP1 (11723275_at) / RFU SPTSSB (11747773_x_at) / Fold change /veh SPTSSB (11747773_x_at) / RFU PRSS12 (11739890_at) / Fold change /veh PRSS12 (11739890_at) / RFU BIN1 (11741810_x_at) / Fold change /veh BIN1 (11741810_x_at) / RFU WNT11 (11732464_a_at) / Fold change /veh WNT11 (11732464_a_at) / RFU C10orf10 (11716521_a_at) / Fold change /veh C10orf10 (11716521_a_at) / RFU C5orf56 (11738089_at) / Fold change /veh C5orf56 (11738089_at) / RFU CYB561 (11721691_x_at) / Fold change /veh CYB561 (11721691_x_at) / RFU ANKRD19P (11752326_a_at) / Fold change /veh ANKRD19P (11752326_a_at) / RFU OR2T12 /// OR2T33 /// OR2T8 (11738714_s_at) / Fold change /veh OR2T12 /// OR2T33 /// OR2T8 (11738714_s_at) / RFU VCAN (11748164_a_at) / Fold change /veh VCAN (11748164_a_at) / RFU JSRP1 (11732532_at) / Fold change /veh JSRP1 (11732532_at) / RFU KRTAP10-11 (11738290_x_at) / Fold change /veh KRTAP10-11 (11738290_x_at) / RFU MYO3A (11730013_a_at) / Fold change /veh MYO3A (11730013_a_at) / RFU EBF3 (11725865_a_at) / Fold change /veh EBF3 (11725865_a_at) / RFU CAMK2N1 (11719241_x_at) / Fold change /veh CAMK2N1 (11719241_x_at) / RFU C5orf56 (11738088_a_at) / Fold change /veh C5orf56 (11738088_a_at) / RFU OLFML3 (11715873_a_at) / Fold change /veh OLFML3 (11715873_a_at) / RFU LOC100653217 /// NTM (11731650_a_at) / Fold change /veh LOC100653217 /// NTM (11731650_a_at) / RFU MAPK11 (11762145_a_at) / Fold change /veh MAPK11 (11762145_a_at) / RFU FIZ1 (11724087_x_at) / Fold change /veh FIZ1 (11724087_x_at) / RFU OASL (11726364_x_at) / Fold change /veh OASL (11726364_x_at) / RFU SOX15 (11748057_x_at) / Fold change /veh SOX15 (11748057_x_at) / RFU CD79A (11719716_a_at) / Fold change /veh CD79A (11719716_a_at) / RFU HIST1H1D (11736915_at) / Fold change /veh HIST1H1D (11736915_at) / RFU CASKIN2 (11723855_a_at) / Fold change /veh CASKIN2 (11723855_a_at) / RFU LOC730098 (11760151_x_at) / Fold change /veh LOC730098 (11760151_x_at) / RFU OR4N2 (11742367_at) / Fold change /veh OR4N2 (11742367_at) / RFU PRRT2 (11749266_a_at) / Fold change /veh PRRT2 (11749266_a_at) / RFU SNX32 (11753110_a_at) / Fold change /veh SNX32 (11753110_a_at) / RFU CDHR5 (11726645_a_at) / Fold change /veh CDHR5 (11726645_a_at) / RFU RCAN1 (11760418_a_at) / Fold change /veh RCAN1 (11760418_a_at) / RFU FAM167A (11723789_a_at) / Fold change /veh FAM167A (11723789_a_at) / RFU FAM26E (11764081_at) / Fold change /veh FAM26E (11764081_at) / RFU ISYNA1 (11749810_s_at) / Fold change /veh ISYNA1 (11749810_s_at) / RFU ACY1 (11761880_at) / Fold change /veh ACY1 (11761880_at) / RFU 11764098_at / Fold change /veh 11764098_at / RFU SAMD14 (11745864_x_at) / Fold change /veh SAMD14 (11745864_x_at) / RFU NPB (11741838_a_at) / Fold change /veh NPB (11741838_a_at) / RFU TMPRSS6 (11731388_a_at) / Fold change /veh TMPRSS6 (11731388_a_at) / RFU KRTAP10-2 (11738614_at) / Fold change /veh KRTAP10-2 (11738614_at) / RFU ARHGAP8 /// PRR5-ARHGAP8 (11727945_x_at) / Fold change /veh ARHGAP8 /// PRR5-ARHGAP8 (11727945_x_at) / RFU KRTAP5-7 /// NADSYN1 (11734609_at) / Fold change /veh KRTAP5-7 /// NADSYN1 (11734609_at) / RFU RASL12 (11751679_a_at) / Fold change /veh RASL12 (11751679_a_at) / RFU CDKN2B (11736163_a_at) / Fold change /veh CDKN2B (11736163_a_at) / RFU PRF1 (11729649_at) / Fold change /veh PRF1 (11729649_at) / RFU, ZNF638 /// ZNF638-IT1 / Fold change vs veh, ZNF638 /// ZNF638-IT1 / RFU, PANK3 / Fold change vs veh, PANK3 / RFU, SH3YL1 / Fold change vs veh, SH3YL1 / RFU, ZEB2 / Fold change vs veh, ZEB2 / RFU, NRIP1 / Fold change vs veh, NRIP1 / RFU, PTTG1IP / Fold change vs veh, PTTG1IP / RFU, CAPN2 / Fold change vs veh, CAPN2 / RFU, MED14 / Fold change vs veh, MED14 / RFU, SNORA58 / Fold change vs veh, SNORA58 / RFU, C1orf63 / Fold change vs veh, C1orf63 / RFU, LRRFIP1 / Fold change vs veh, LRRFIP1 / RFU, NDUFAF7 / Fold change vs veh, NDUFAF7 / RFU, SLC12A2 / Fold change vs veh, SLC12A2 / RFU, IBTK / Fold change vs veh, IBTK / RFU, ESF1 / Fold change vs veh, ESF1 / Fold change vs veh, TMEM50B / RFU, TAOK1 / Fold change vs veh, TAOK1 / RFU, ACBD3 / Fold change vs veh, ACBD3 / RFU, TMA16 / Fold change vs veh, TMA16 / RFU, RWDD3 / Fold change vs veh, RWDD3 / RFU, BCAT1 / Fold change vs veh, BCAT1 / RFU, EDEM3 / Fold change vs veh, EDEM3 / RFU, TMEM33 / Fold change vs veh, TMEM33 / RFU, WDR75 / Fold change vs veh, WDR75 / RFU, AHCTF1 / Fold change vs veh, AHCTF1 / RFU, TFRC / Fold change vs veh, TFRC / RFU, ZDHHC17 / Fold change vs veh, ZDHHC17 / RFU, NOM1 / Fold change vs veh, NOM1 / RFU, ARL8B / Fold change vs veh, ARL8B / RFU, ZBTB11 / Fold change vs veh, ZBTB11 / RFU, TAMM41 / Fold change vs veh, TAMM41 / RFU, KIAA1704 /// LOC100996395 / Fold change vs veh, KIAA1704 /// LOC100996395 / RFU, ING1 / Fold change vs veh, ING1 / RFU, TRMT61B / Fold change vs veh, TRMT61B / RFU, FUBP3 / Fold change vs veh, FUBP3 / RFU, TP53 / Fold change vs veh, TP53 / RFU, TNKS2 / Fold change vs veh, TNKS2 / RFU, ZFP14 / Fold change vs veh, ZFP14 / RFU, ACTR2 / Fold change vs veh, ACTR2 / RFU, PPP3R1 / Fold change vs veh, PPP3R1 / RFU, PIK3R1 / Fold change vs veh, PIK3R1 / RFU, HNRNPA1 / Fold change vs veh, HNRNPA1 / RFU, RNF170 / Fold change vs veh, RNF170 / RFU, ZNF28 / Fold change vs veh, ZNF28 / RFU, RNGTT / Fold change vs veh, RNGTT / RFU, OGT / Fold change vs veh, OGT / RFU, BRD1 / Fold change vs veh, BRD1 / RFU, MARS / Fold change vs veh, MARS / RFU, ZNF655 / Fold change vs veh, ZNF655 / RFU, FAHD1 / Fold change vs veh, FAHD1 / RFU, BDP1 / Fold change vs veh, BDP1 / RFU, LRRCC1 / Fold change vs veh, LRRCC1 / RFU, ARID1A / Fold change vs veh, ARID1A / RFU, ZNF146 / Fold change vs veh, ZNF146 / RFU, ZNF330 / Fold change vs veh, ZNF330 / RFU, GPN3 / Fold change vs veh, GPN3 / RFU, C9orf123 / Fold change vs veh, C9orf123 / RFU, N4BP2L2 / Fold change vs veh, N4BP2L2 / RFU, ARFIP1 / Fold change vs veh, ARFIP1 / RFU, FAM179B / Fold change vs veh, FAM179B / RFU, BCL10 / Fold change vs veh, BCL10 / RFU, UHRF1BP1L / Fold change vs veh, UHRF1BP1L / RFU, BET1 / Fold change vs veh, BET1 / RFU, CNOT2 / Fold change vs veh, CNOT2 / RFU, ZNF268 / Fold change vs veh, ZNF268 / Fold change vs veh, ZNF507 / RFU, DGCR2 / Fold change vs veh, DGCR2 / RFU, WDSUB1 / Fold change vs veh, WDSUB1 / Fold change vs veh, HSP90B1 /// MIR3652 / RFU, ADSS / Fold change vs veh, ADSS / RFU, GK / Fold change vs veh, GK / RFU, ZNF148 / Fold change vs veh, ZNF148 / RFU, TAF9 / Fold change vs veh, TAF9 / RFU, SLC1A5 / Fold change vs veh, SLC1A5 / RFU, SLMO2 / Fold change vs veh, SLMO2 / RFU, ABCC4 / Fold change vs veh, ABCC4 / RFU, LOC101060439 /// RAP1B / Fold change vs veh, LOC101060439 /// RAP1B / RFU, RFX7 / Fold change vs veh, RFX7 / RFU, GTPBP10 / Fold change vs veh, GTPBP10 / RFU, CNEP1R1 / Fold change vs veh, CNEP1R1 / RFU, BIVM-ERCC5 /// ERCC5 / Fold change vs veh, BIVM-ERCC5 /// ERCC5 / RFU, ILF3 / Fold change vs veh, ILF3 / RFU 11762660_at / Fold change /veh 11762660_at / RFU VCAN (11757783_s_at) / Fold change /veh VCAN (11757783_s_at) / RFU DDX43 (11728927_at) / Fold change /veh DDX43 (11728927_at) / RFU KRT8 (11758188_x_at) / Fold change /veh KRT8 (11758188_x_at) / RFU NKD1 (11759106_at) / Fold change /veh NKD1 (11759106_at) / RFU SRD5A1 (11742802_a_at) / Fold change /veh SRD5A1 (11742802_a_at) / RFU TPSAB1 /// TPSB2 (11721975_s_at) / Fold change /veh TPSAB1 /// TPSB2 (11721975_s_at) / RFU GSTM3 (11746129_a_at) / Fold change /veh GSTM3 (11746129_a_at) / RFU IL23R (11737362_x_at) / Fold change /veh IL23R (11737362_x_at) / RFU TMEM51 (11727254_a_at) / Fold change /veh TMEM51 (11727254_a_at) / RFU PIWIL2 (11732686_x_at) / Fold change /veh PIWIL2 (11732686_x_at) / RFU ORM1 (11744905_x_at) / Fold change /veh ORM1 (11744905_x_at) / RFU CCDC152 (11743942_at) / Fold change /veh CCDC152 (11743942_at) / RFU ECM1 (11717891_a_at) / Fold change /veh ECM1 (11717891_a_at) / RFU IL23R (11748794_a_at) / Fold change /veh IL23R (11748794_a_at) / RFU TNFAIP8L3 (11732012_x_at) / Fold change /veh TNFAIP8L3 (11732012_x_at) / RFU MBOAT4 (11741988_at) / Fold change /veh MBOAT4 (11741988_at) / RFU 11764193_at / Fold change /veh 11764193_at / RFU TMEM53 (11763286_at) / Fold change /veh TMEM53 (11763286_at) / RFU MAGEB2 (11727129_at) / Fold change /veh MAGEB2 (11727129_at) / RFU TMEM200A (11744735_a_at) / Fold change /veh TMEM200A (11744735_a_at) / RFU CCDC152 (11751479_a_at) / Fold change /veh CCDC152 (11751479_a_at) / RFU FAM211A (11726209_a_at) / Fold change /veh FAM211A (11726209_a_at) / RFU RGS16 (11746705_a_at) / Fold change /veh RGS16 (11746705_a_at) / RFU VCAN (11755009_s_at) / Fold change /veh VCAN (11755009_s_at) / RFU RHOB (11743442_s_at) / Fold change /veh RHOB (11743442_s_at) / RFU RGS16 (11720943_a_at) / Fold change /veh RGS16 (11720943_a_at) / RFU RGS16 (11720944_at) / Fold change /veh RGS16 (11720944_at) / RFU, VPS4B / Fold change vs veh, VPS4B / RFU, CREB1 / Fold change vs veh, CREB1 / RFU, DNAJC13 / Fold change vs veh, DNAJC13 / RFU, GNAQ / Fold change vs veh, GNAQ / RFU, CDK5R1 / Fold change vs veh, CDK5R1 / RFU, ZRANB3 / Fold change vs veh, ZRANB3 / RFU, CUL4A / Fold change vs veh, CUL4A / RFU, CCNY / Fold change vs veh, CCNY / RFU, UFL1 / Fold change vs veh, UFL1 / RFU, COG3 / Fold change vs veh, COG3 / RFU, DIAPH2 / Fold change vs veh, DIAPH2 / RFU, SKA2 / Fold change vs veh, SKA2 / RFU, AFF3 / Fold change vs veh, AFF3 / RFU, LMF1 / Fold change vs veh, LMF1 / RFU, IPO11 / Fold change vs veh, IPO11 / RFU, DFFB / Fold change vs veh, DFFB / RFU, FOXP1 / Fold change vs veh, FOXP1 / RFU, CARD8 / Fold change vs veh, CARD8 / RFU, STRN3 / Fold change vs veh, STRN3 / RFU, ADK / Fold change vs veh, ADK / RFU, RASSF2 / Fold change vs veh, RASSF2 / RFU, WIPF1 / Fold change vs veh, WIPF1 / RFU, LARP1B / Fold change vs veh, LARP1B / RFU, RASA1 / Fold change vs veh, RASA1 / RFU, RB1 / Fold change vs veh, RB1 / RFU, PPFIA1 / Fold change vs veh, PPFIA1 / RFU, MAT2A / Fold change vs veh, MAT2A / RFU, CCT5 / Fold change vs veh, CCT5 / RFU, WDR92 / Fold change vs veh, WDR92 / RFU, CUX1 / Fold change vs veh, CUX1 / RFU, TTC7A / Fold change vs veh, TTC7A / RFU, TMEM135 / Fold change vs veh, TMEM135 / RFU, DEPTOR / Fold change vs veh, DEPTOR / RFU, CPM / Fold change vs veh, CPM / RFU, DNAJB6 / Fold change vs veh, DNAJB6 / RFU, CACNA2D3 / Fold change vs veh, CACNA2D3 / RFU, DTX4 / Fold change vs veh, DTX4 / RFU, TFCP2 / Fold change vs veh, TFCP2 / RFU, GMCL1 /// GMCL1P1 / Fold change vs veh, GMCL1 /// GMCL1P1 / RFU, AEBP2 / Fold change vs veh, AEBP2 / RFU, SNHG1 /// SNORD22 /// SNORD25 /// SNORD26 /// SNORD27 /// SNORD28 /// SNORD29 /// SNORD31 / Fold change vs veh, SNHG1 /// SNORD22 /// SNORD25 /// SNORD26 /// SNORD27 /// SNORD28 /// SNORD29 /// SNORD31 / Fold change (Aza/veh), C12orf56 (ProbeSet 11735607_a_at) / Fold change (ACY-1035/veh), C12orf56 (ProbeSet 11735607_a_at) / Fold change (Aza/veh), FGFR1OP (ProbeSet 11751329_s_at) / Fold change (ACY-1035/veh), FGFR1OP (ProbeSet 11751329_s_at) / Fold change (Aza/veh), VPS36 (ProbeSet 11739960_a_at) / Fold change (ACY-1035/veh), VPS36 (ProbeSet 11739960_a_at) / RFU SYPL1 (11715823_x_at) / Fold change /veh SYPL1 (11715823_x_at) / RFU IGFBP7 (11715501_s_at) / Fold change /veh IGFBP7 (11715501_s_at) / RFU REEP3 (11722064_at) / Fold change /veh REEP3 (11722064_at) / RFU IGLL1 (11728026_x_at) / Fold change /veh IGLL1 (11728026_x_at): dose or concentration left out as unconfirmed. Particulars: ProbeSet 11716999_a_at; LIST D.

Structures are written as SMILES.

Turning to `Nc1ccc(-c2cccs2)cc1NC(=O)c1ccc2c(c1)cc(C1CC1)n2CCN1CCOCC1` [ACY-1035], the “Fold change vs veh, RASA1” value stood at 0.84.
